Assay results taken from patent US20080131511A1, “Pharmaceutical Composition for Treatment of Tear and Salivary Fluid Drying” (Astellas Pharma, Inc., priority 2004, published 2008).

Tests used:
Type in all cases: in vivo, mouse (male Balb/c)
sweat gland [1] = assay: Sweating (number of activated sweat glands on footpad) after subcutaneous bolus administration
Procedure: (§1) Male Balb/c mice were used in the test.
The compound A was dissolved in physiological saline to a concentration of 1, 3, 10, 30 or 100 mg/5 ml, and 5 ml/kg of the drug solution was administered under the dorsal skin. Secreted amounts of salivary and tear fluid were measured just before the administration of compound A and 10, 20, 30, 40 and 50 minutes after the administration. The sweating action was measured 10 minutes after the administration. Also, the growth acceleration action was measured 6 hours after the administration.
Pilocarpine was dissolved in physiological saline to a concentration of 0.03, 0.1, 0.3, 1, 3 or 10 mg/5 ml, or cevimeline to a concentration of 0.3, 1, 3, 10, 30 or 100 mg/5 ml, and 5 ml/kg of the drug solution was administered under the dorsal skin. Secreted amounts of salivary and tear fluid were measured just before the administration of pilocarpine or cevimeline and 10, 20, 30, 40 and 50 minutes after the administration. The sweating action was measured 10 minutes after the administration. Also, the growth acceleration action was measured 6 hours after the administration.
(§2) The footpad of right hind paw of a mouse anesthetized with diethyl ether was wiped with absorbent cotton, and then 20 μl of each of 5 mg/ml iodine-ethanol solution and 50 mg/ml starch-mineral oil suspension was applied thereto. The number of black spots on footpad was counted and used as the number of activated sweat glands. In the case of the subcutaneous bolus administration test, the number of activated sweat glands 10 minutes after the administration of compound A was measured. In the case of the subcutaneous continuous administration, area under the number of activated sweat glands-versus-time curve (AUC) was calculated.
(§3) All of the test results were expressed as fold increases of the reactions of the drug-administered group versus those of the vehicle-administered group, and comparison between the drug-administered groups and the vehicle-administered group was carried out using Dunnett's t-test. P<0.05 was considered significant. Results

sweat gland [2] = assay: Sweating (activated sweat glands, AUC) during subcutaneous continuous administration (osmotic pump); conditions: for sweating: AUC of activated sweat glands
Procedure: as §1
The compound A was dissolved in physiological saline to a concentration of 0.625, 1.25, 2.5, 5.0, 10 or 20 mg/200 μl, and filled each pump (Alzet mini-osmotic pump 2001D, 8 μl/h, 1 day; DURECT Corporation) with about 200 μl portions It means, that is, each pump releases at a rate of 0.025, 0.05, 0.1, 0.2, 0.4 or 0.8 mg compound A/h, respectively. About 5 mm of dorsal epidermis of a mouse anesthetized with diethyl ether was incised, the osmotic pump already filled with the compound A was subcutaneously implanted, and then the skin was stitched. Secreted amounts of salivary and tear fluid and sweating were periodically measured from just before the implantation of pump until 32 hours after the administration. The ornithine decarboxylase activity was measured 10 hours after the implantation. […]
as §2, §3

[3] = system: ornithine decarboxylase (ODC) activity of parotid salivary gland; assay: Ornithine decarboxylase activity of parotid salivary gland, subcutaneous continuous administration; conditions: mice; for Glandular cell growth Salivary gland: ODC activity 10 hours after implantation
Procedure: as §1
(§4) The compound A was dissolved in physiological saline to a concentration of 0.625, 1.25, 2.5, 5.0, 10 or 20 mg/200 μl, and filled each pump (Alzet mini-osmotic pump 2001D, 8 μl/h, 1 day; DURECT Corporation) with about 200 μl portions It means, that is, each pump releases at a rate of 0.025, 0.05, 0.1, 0.2, 0.4 or 0.8 mg compound A/h, respectively. About 5 mm of dorsal epidermis of a mouse anesthetized with diethyl ether was incised, the osmotic pump already filled with the compound A was subcutaneously implanted, and then the skin was stitched. Secreted amounts of salivary and tear fluid and sweating were periodically measured from just before the implantation of pump until 32 hours after the administration. The ornithine decarboxylase activity was measured 10 hours after the implantation.
(§5) Pilocarpine was dissolved in physiological saline to a concentration of 0.039, 0.078, 0.16 or 0.31 mg/200 μl, or cevimeline to a concentration of 0.16, 0.31, 0.63 or 1.3 mg/200 μl, and filled the osmotic pump (Alzet mini-osmotic pump 2001 D, 8 μl/h, 1 day; DURECT Corporation) with about 200 μl portions. It means, that is, each pump releases at a rate of 0.00156, 0.00312, 0.0064 or 0.0124 mg/h (pilocarpine) or 0.0064, 0.0124, 0.0252 or 0.05 mg/h (cevimeline). About 5 mm of dorsal epidermis of a mouse anesthetized with diethyl ether was incised, the osmotic pump already filled with pilocarpine or cevimeline was subcutaneously implanted, and then the skin was stitched. Secreted amounts of salivary and tear fluid and sweating were periodically measured from just before the implantation of pump until 32 hours after the administration. The ornithine decarboxylase activity was measured 10 hours after the implantation.
(§6) Thus, it can be easily analogized that the ODC activity becomes a useful index of cell growth and function of the exocrine gland. Accordingly, the ability of each drug to activate glandular tissue was evaluated by measuring ODC activity of parotid salivary gland and extra-orbital lacrimal gland.
(§7) The amount of ^14CO2 formed from L-^14C-ornithine was used as the index of ODC activity.
(§8) A mouse anesthetized with diethyl ether was sacrificed by bleeding, and left and right parotid salivary glands and extra-orbital lacrimal glands were isolated. After removing the attached connective tissue and fat, the isolated glandular tissues homogenized in 1.5 ml of a homogenate buffer (25 mM Tris-HCl buffer (pH 7.4) containing 0.1 mM ethylenediaminetetraacetic acid, 0.4 mM pyridoxal phosphate, 5 mM dithiothreitol and 0.1% Brij 35®) using a Potter type homogenizer and then centrifuged at 4° C., 15,000 g for 30 minutes, and the supernatant was used as the enzyme fraction. Reaction of the enzyme and substrate was carried out by adding 100 μl of a substrate solution (the homogenate buffer containing 300 μM DL-ornithine and 5 μCi L-^14C-ornithine) to 900 μl of the enzyme liquid whose protein concentration had been adjusted to 2.5 mg/ml and incubating at 37° C. for 1 hour in a sealed tube, and the reaction was terminated by the addition of 100 μl of 2 M H2SO4. The ^14CO2 generated by the reaction was captured by 150 μl of 1 N NaOH soaked in a glass filter. Radioactivity of the ^14CO2 captured on the glass filter was detected using a liquid scintillation counter. The enzyme activity (pmol ^14CO2/mg protein/hour) was calculated from the measured results.
as §3

[4] = system: ornithine decarboxylase (ODC) activity of extra-orbital lacrimal gland; assay: Ornithine decarboxylase activity of extra-orbital lacrimal gland, subcutaneous continuous administration; conditions: mice; for Glandular cell growth Lacrimal gland: ODC activity 10 hours after implantation
Procedure: as §1, §4, §5, §6, §7, §8, §3

[5] = male, Balb/c, mouse, in vivo, sc
[6] = s.c. osmotic pump 0.63 mg (0.0252 mg/h)
[7] = s.c. osmotic pump 1.25 (0.05 mg/h)
[8] = mice, s.c. continuous administration
[9] = s.c. osmotic pump 1.25 mg (0.05 mg/h)
[10] = s.c. osmotic pump 2.5 mg (0.1 mg/h)
[11] = s.c. osmotic pump 5 mg (0.2 mg/h)
[12] = s.c. osmotic pump 10 mg (0.4 mg/h)
[13] = s.c. osmotic pump 0.16 mg (0.0064 mg/h)
[14] = s.c. osmotic pump 0.31 mg (0.0124 mg/h)

CC1OC2(CS1)CN1CCC2CC1 (stereo not shown) [cevimeline]
dose at which statistically significant sweating was found (sweat gland [1]; mice, s.c. bolus): 10 mg/kg | sweating (sweat gland [1]; mice, s.c. bolus 3 mg/kg, 10 minutes after administration (Table 4)): 1.5 ± 0.29 fold increase vs. the vehicle group | sweating (sweat gland [1]; mice, s.c. bolus 10 mg/kg, 10 minutes after administration (Table 4)): 2.5 ± 0.40 fold increase vs. the vehicle group | sweating (sweat gland [1]; mice, s.c. bolus 30 mg/kg, 10 minutes after administration (Table 4)): 3.1 ± 0.57 fold increase vs. the vehicle group | dose at which sweating acceleration action was found (sweat gland [2]; [5]): 1.25 mg | sweating acceleration dose relative to dose for secretion acceleration (sweat gland [2]; [5]): 2 times | glandular cell ODC activity acceleration action ([3]; s.c. continuous administration): not confirmed even at 1.25 mg | Glandular cell growth Salivary gland [3, 6]: 0.87 ± 0.05 fold increase vs. the solvent group | Glandular cell growth Salivary gland [3, 7]: 0.45 ± 0.12 fold increase vs. the solvent group | Glandular cell growth Lacrimal gland [4, 6]: 1.4 ± 0.28 fold increase vs. the solvent group | Glandular cell growth Lacrimal gland [4, 7]: 1.3 ± 0.70 fold increase vs. the solvent group

C=C1CC2(CCN(C)CC2)O[C@H]1C [compound A, (−)-(S)-2,8-dimethyl-3-methylene-1-oxa-8-azaspiro[4.5]decane]
dose at which a side effect was found (sweat gland [1]; male, Balb/c, mouse, in vivo, 10 min): 30 mg/kg | dose at which statistically significant sweating was found (sweat gland [1]; mice, s.c. bolus): 30 mg/kg | sweating dose relative to dose accelerating secretion of salivary and tear fluid (sweat gland [1]; mice, s.c. bolus): 3 times | sweating (sweat gland [1]; mice, s.c. bolus 3 mg/kg, 10 minutes after administration): 0.69 ± 0.19 fold increase vs. the vehicle group | sweating (sweat gland [1]; mice, s.c. bolus 10 mg/kg, 10 minutes after administration): 1.3 ± 0.20 fold increase vs. the vehicle group | sweating (sweat gland [1]; mice, s.c. bolus 30 mg/kg, 10 minutes after administration): 2.0 ± 0.19 fold increase vs. the vehicle group | sweating (sweat gland [1]; mice, s.c. bolus 100 mg/kg, 10 minutes after administration): 2.2 ± 0.17 fold increase vs. the vehicle group | dose at which a side effect was not found (sweat gland [1]; mouse, bolus administration): 10 mg/kg | dose at which sweating acceleration action was found (sweat gland [2]; [8]): 20 mg | sweating acceleration dose relative to dose for secretion acceleration (sweat gland [2]; [8]): 8 times | dose up to which sweating acceleration action was not found (sweat gland [2]; mice, s.c. continuous administration, throughout the test period): 10 mg | sweating (sweat gland [2]; mice, s.c. osmotic pump 0.63 mg (0.025 mg/h)): 0.85 ± 0.06 fold increase vs. the vehicle group | sweating (sweat gland [2]; mice, s.c. osmotic pump 1.25 mg (0.05 mg/h)): 0.84 ± 0.06 fold increase vs. the vehicle group | sweating (sweat gland [2]; mice, s.c. osmotic pump 2.5 mg (0.1 mg/h)): 0.89 ± 0.05 fold increase vs. the vehicle group | sweating (sweat gland [2]; mice, s.c. osmotic pump 5 mg (0.2 mg/h)): 0.88 ± 0.05 fold increase vs. the vehicle group | sweating (sweat gland [2]; mice, s.c. osmotic pump 10 mg (0.4 mg/h)): 0.90 ± 0.04 fold increase vs. the vehicle group | sweating (sweat gland [2]; mice, s.c. osmotic pump 20 mg (0.8 mg/h)): 1.7 ± 0.07 fold increase vs. the vehicle group | Glandular cell growth Salivary gland [3, 9]: 1.56 ± 0.33 fold increase vs. the vehicle group | Glandular cell growth Salivary gland [3, 10]: 6.9 ± 2.3 fold increase vs. the vehicle group | Glandular cell growth Salivary gland [3, 11]: 9.6 ± 1.8 fold increase vs. the vehicle group | Glandular cell growth Salivary gland [3, 12]: 9.8 ± 2.6 fold increase vs. the vehicle group | Glandular cell growth Lacrimal gland [4, 9]: 3.3 ± 1.2 fold increase vs. the vehicle group | Glandular cell growth Lacrimal gland [4, 10]: 6.7 ± 0.90 fold increase vs. the vehicle group | Glandular cell growth Lacrimal gland [4, 11]: 9.2 ± 1.4 fold increase vs. the vehicle group | Glandular cell growth Lacrimal gland [4, 12]: 7.1 ± 1.2 fold increase vs. the vehicle group

CC[C@@H]1C(=O)OC[C@@H]1Cc1cncn1C [pilocarpine]
dose at which statistically significant sweating was found (sweat gland [1]; mice, s.c. bolus): 1 mg/kg | sweating (sweat gland [1]; mice, s.c. bolus 0.3 mg/kg, 10 minutes after administration): 1.1 ± 0.16 fold increase vs. the vehicle group | sweating (sweat gland [1]; mice, s.c. bolus 1 mg/kg, 10 minutes after administration): 3.1 ± 0.32 fold increase vs. the vehicle group | sweating (sweat gland [1]; mice, s.c. bolus 3 mg/kg, 10 minutes after administration (Table 3)): 4.2 ± 0.29 fold increase vs. the vehicle group | dose at which sweating acceleration action was found (sweat gland [2]; [5]): 0.31 mg | Glandular cell growth Salivary gland [3, 13]: 0.42 ± 0.06 fold increase vs. vehicle group | Glandular cell growth Salivary gland [3, 14]: 1.1 ± 0.20 fold increase vs. vehicle group | dose at which ODC activity increasing action of lacrimal gland cell was observed ([4]; s.c. continuous administration): 0.31 mg | Glandular cell growth Lacrimal gland [4, 13]: 1.4 ± 0.33 fold increase vs. vehicle group | Glandular cell growth Lacrimal gland [4, 14]: 2.0 ± 0.28 fold increase vs. vehicle group
